Numbered stars: 1 amine (or outer) side, 2 acyl side, 3 side chain; on linkers, the order of the positions; unused ones are H or OH. Square brackets hold non-standard residues; d marks the D form. Side chains are listed from the residue outwards. Ends that are not written are not given here. Peptide text beside a SMILES is read from it. * marks the point of attachment. γGlu = O=C(O)[C@H](CCC(=O)[*:2])N[*:1]; Palmitoyl = CCCCCCCCCCCCCCCC(=O)*; Aib = CC(C)(N)C(=O)O
Assays:
[1] = DIO mice, s.c. daily for seven days (Example 32); assay type: in vivo
Description: The acylated glucagon analogs were as follows:

[2] = DIO mice, i.p. once a week for 2 weeks (Example 30); assay type: in vivo
Procedure: Changes in body weight of and food intake by the mice were measured 0, 1, 3, 5, 7, 8, 10, 12, and 14 days after injection. Blood glucose levels of the mice were monitored throughout the 14 days. Glucose tolerance tests were performed by injecting a 25% glucose in saline solution 1 hour or 24 hours after administration of the acylated or pegylated peptide and measuring blood glucose levels at −60, 0, 15, 30, 60, or 120 min after the glucose injection.

[3] = Diet-induced obese C57B6 mice, s.c. Peptide X-PEG / Y-PEG (Examples 45-49); assay type: in vivo
Procedure: C57BI/6 mice were obtained from Jackson Laboratories and fed a diabetogenic diet from Research Diets, a high sucrose diet with 58% kcal from fat. Mice were single or group-housed on a 12:12-h light-dark cycle at 22° C. with free access to food and water. All studies were approved by and performed according to the guidelines of the Institutional Animal Care and Use Committee of the University of Cincinnati.
Whole body composition (fat and lean mass) was measured using NMR technology (EchoMRI, Houston, Tex.).
Energy intake and expenditure, as well as home-cage activity, were assessed by using a combined indirect calorimetry system (TSE Systems, Bad Homburg, Germany). Oxygen consumption and CO2 production were measured every 45 min for a total of 120 h (including 12 h of adaptation) to determine the respiratory quotient and energy expenditure. Food and water intake and meal patterns were determined continuously for 120 h at the same time as the indirect calorimetry assessments by integration of scales into the sealed cage environment. Meals were defined as food intake events with a minimum duration of 60 s, and a break of 300 s between food intake events. Home-cage locomotor activity was determined using a multidimensional infrared light beam system with beams scanning the bottom and top levels of the cage, and activity being expressed as beam breaks. Stationary motor activity (fidgeting) was defined as consecutive breaks of one single light beam at cage-bottom level, ambulatory movement as breaks of any two different light beams at cage-bottom level, and rearing as simultaneous breaks of light beams on both cage-bottom and the top level.
Blood was collected after a 6-h fast from tail veins using EDTA-coated Microvette tubes (Sarstedt, Nuremberg, Germany) and immediately chilled on ice. After 15 min of centrifugation at 3,000 g and 4° C., plasma was stored at −80° C. Plasma insulin was quantified by a radioimmunoassay from Linco (Sensitive Rat Insulin RIA; Linco Research, St. Charles, Mo.). Plasma TGs and cholesterol levels were measured by enzymatic assay kits (Thermo Electron, Waltham, Mass.). Samples were analyzed individually with the exception that pooled samples (0.25 ml) from 5 animals/group were subjected to fast-performance liquid chromatography (FPLC) gel filtration on two Superose 6 columns connected in series for lipoprotein separation. All assays were performed according to the manufacturer's instructions.
For the determination of glucose tolerance, mice were subjected to 6 h of fasting and injected intraperitoneally (i.p.) with 2 g glucose/kg body wt (50% D-glucose (Sigma) in 0.9% saline) for the glucose tolerance test (GTT). Tail blood glucose levels (mg/dl) were measured by using a hand-held glucometer (TheraSense Freestyle) before (0 min) and at 15, 30, 60, 90, and 120 min after injection.
The 40-kd pegylated peptides Peptides X-PEG and Y-PEG were used as single weekly subcutaneous (s.c) injections in diet-induced obese (D10) C57B6 mice.
Long-term effects of these lower doses on food intake (p=0.95; FIG. 29C) were less impressive than short-term effects with a higher dose (FIG. 27C).

[4] = Diet-induced obese rats, once-a-week injection, 3-week treatment; assay type: in vivo; details: 70 nmol/kg/week, 3 weeks
Procedure: To determine if the principal phenomenon generalizes across species, both compounds were administered to diet-induced obese rats (mean weight 777.4+/−2.1 g, dose 70 nmol/kg/week, once-a-week injection, 3-week treatment).

[5] = GLP-1 receptor knock out (GLP-1R−/−) mice on high-fat diet, one month; assay type: in vivo
GLP-1 receptor = GLP-1 receptor (Homo sapiens, UniProt P43220); assay: Functional assay, cAMP synthesis: luciferase reporter in HEK293 cells co-transfected with GLP-1 receptor
Procedure: (§1) Peptide absorbance readings were obtained from UV Absorbance measurements at 280 nm on a Genesys 6 Spectrophotometer (Thermo Electron Corporation). Beer's Law was used to calculate solution concentrations based on the number of tryptophan and tyrosine residues in each analog. At the end of the incubation, 100 μL LucLite luminescence substrate reagent was added to each well, the plate sealed and shaken, and placed into a Wallac Trilux luminescence counter for cAMP detection.
(§2) HEK293 cells were co-transfected with the GcgR or GLP-1R cDNAs and a luciferase reporter gene-linked to a cAMP response element (CRE). […] The plate was incubated for 10 min in the dark and light output was quantified on a MicroBeta1450 liquid scintillation counter (Perkin-Elmer, Wellesley, Mass.).

glucagon receptor = glucagon receptor (Homo sapiens, UniProt P47871); assay: Functional assay, cAMP synthesis: luciferase reporter in HEK293 cells co-transfected with glucagon receptor
Procedure: as §1, §2

[6] = Circular dichroism, percent helicity

Sequence of GLP-1 receptor (P43220 24-463, species assumed): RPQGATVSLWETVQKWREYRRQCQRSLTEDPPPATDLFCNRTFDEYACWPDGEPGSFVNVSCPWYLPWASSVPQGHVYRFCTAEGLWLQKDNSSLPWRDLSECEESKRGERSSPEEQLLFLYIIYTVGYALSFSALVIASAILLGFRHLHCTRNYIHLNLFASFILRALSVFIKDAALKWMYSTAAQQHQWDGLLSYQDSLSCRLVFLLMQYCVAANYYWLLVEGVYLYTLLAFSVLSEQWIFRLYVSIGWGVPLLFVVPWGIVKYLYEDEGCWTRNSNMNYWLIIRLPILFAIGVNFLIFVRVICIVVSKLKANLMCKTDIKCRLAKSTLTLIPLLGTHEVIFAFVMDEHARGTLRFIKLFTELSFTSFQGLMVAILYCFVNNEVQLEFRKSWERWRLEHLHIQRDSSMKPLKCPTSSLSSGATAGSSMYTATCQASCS
Sequence of glucagon receptor (P47871 26-477): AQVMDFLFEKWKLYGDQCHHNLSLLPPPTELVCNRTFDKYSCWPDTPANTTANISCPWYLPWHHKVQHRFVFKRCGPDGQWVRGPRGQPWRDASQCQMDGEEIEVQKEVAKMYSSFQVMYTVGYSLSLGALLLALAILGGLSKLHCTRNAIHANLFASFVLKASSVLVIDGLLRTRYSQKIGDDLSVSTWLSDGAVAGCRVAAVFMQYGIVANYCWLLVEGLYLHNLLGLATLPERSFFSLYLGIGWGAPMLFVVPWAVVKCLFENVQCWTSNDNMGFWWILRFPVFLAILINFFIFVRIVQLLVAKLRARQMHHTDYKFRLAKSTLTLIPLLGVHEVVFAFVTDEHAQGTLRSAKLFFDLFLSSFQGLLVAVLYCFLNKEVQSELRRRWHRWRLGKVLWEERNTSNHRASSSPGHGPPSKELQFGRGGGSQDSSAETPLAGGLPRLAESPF

**Q.** For “γE-γE-C16 Glucagon Amide: C16 Glucagon Amide with C16 attached to Lys10 through gamma-Glu-gamma-Glu dipeptide spacer”, which “fat mass on Day 7” value ([1]; 100 nmol/kg) is on record?
**A.** lowest fat mass

**Q.** What about the “ability to cause weight loss” value ([1]; 30 or 100 nmol/kg daily s.c.) of the same molecule?
**A.** greatest ability to cause weight loss

**Q.** And the “decrease of blood glucose levels” value ([1]; higher dose)?
**A.** worked as well as Liraglutide

**Q.** Which total body weight ([2]; 40 or 80 nmol/kg, 14 days) does the source give for “Peptide A K^10—C14: Peptide A of Example 20 with Lys10 acylated with a C14 fatty acid chain (H[Aib]QGTFTSDK(C14 fatty acid)SKYLDEQAAKEFIC(PEG 40 kDa)WLMNT-NH2)” here?
**A.** reduced as compared to mice injected with the vehicle control

**Q.** What about the “blood glucose levels in response to a glucose injection” value ([2]; glucose 24 hours after peptide) of the same molecule?
**A.** lowered in comparison to vehicle control

**Q.** With “H(Aib)QGTFTSDYSKYLDEQAAKEFICWLMNT-amide [Peptide Y-PEG]” as the molecule, how does the total cholesterol ([3]; 70 nmol/kg s.c. Days 0 and 7, evaluated Day 9) read?
**A.** 63.0 mg/dL

**Q.** And the “blood glucose profile (AUC), i.p. glucose challenge” value ([3]; Day 3)?
**A.** 14183±1072

**Q.** And the “Blood glucose levels, mean decrease” value ([3]; weekly s.c. 70 nmol/kg, from Day 3)?
**A.** −32%

**Q.** And the “decrease in body weight” value ([3]; weekly s.c. 70 nmol/kg, one month)?
**A.** 28.1%

**Q.** What about the “change in body weight” value [4] of the same molecule?
**A.** −20.58+/−2.26%

**Q.** What about the “change in fat mass” value [4] of the same molecule?
**A.** −33.76+/−4.76%

**Q.** What about the body weight [5] of the same molecule?
**A.** significant decrease in body weight

**Q.** And the fat mass [5]?
**A.** significant decrease

**Q.** With `CCCCCCCCCCCCCC(=O)NCCCC[C@H](NC(=O)[C@H](CC(=O)O)NC(=O)[C@H](CO)NC(=O)[C@@H](NC(=O)[C@H](Cc1ccccc1)NC(=O)[C@@H](NC(=O)CNC(=O)[C@H](CCC(N)=O)NC(=O)[C@H](CO)NC(=O)C(C)(C)c1c[nH]cn1)[C@@H](C)O)[C@@H](C)O)C(=O)N[C@@H](CO)C(=O)N[C@@H](CCCCN)C(=O)N[C@@H](Cc1ccc(O)cc1)C(=O)N[C@@H](CC(C)C)C(=O)N[C@@H](CC(=O)O)C(=O)N[C@H]1CCC(=O)NCCCC[C@@H](C(=O)N[C@@H](CC(=O)O)C(=O)N[C@@H](Cc2ccccc2)C(=O)N[C@H](C(=O)N[C@@H](CCC(N)=O)C(=O)N[C@@H](Cc2c[nH]c3ccccc23)C(=O)N[C@@H](CC(C)C)C(=O)N[C@@H](CCSC)C(=O)N[C@@H](CC(N)=O)C(=O)N[C@H](C(N)=O)[C@@H](C)O)C(C)C)NC(=O)[C@H](C)NC(=O)[C@H](CCCNC(=N)N)NC(=O)[C@H](CCCNC(=N)N)NC1=O` [DMIA1, K10(C14), [E16/K20]-Gluc Amide] as the molecule, how does the “% Activity of GLP-1” value (GLP-1 receptor) read?
**A.** 30%

**Q.** And the “% Activity of Glucagon” value (glucagon receptor; Table 21)?
**A.** 203.7%

**Q.** With `CCCCCCCCCCCCCCCC(=O)N[C@@H](CCC(=O)N[C@@H](CCC(=O)NCCCC[C@H](NC(=O)[C@H](CC(=O)O)NC(=O)[C@H](CO)NC(=O)[C@@H](NC(=O)[C@H](Cc1ccccc1)NC(=O)[C@@H](NC(=O)CNC(=O)[C@H](CCC(=O)O)NC(=O)C(C)(C)NC(=O)[C@@H](N)Cc1c[nH]cn1)[C@@H](C)O)[C@@H](C)O)C(=O)N[C@@H](CO)C(=O)N[C@@H](CCCCN)C(=O)N[C@@H](Cc1ccc(O)cc1)C(=O)N[C@@H](CC(C)C)C(=O)N[C@@H](CC(=O)O)C(=O)N[C@@H](CCC(=O)O)C(=O)N[C@@H](CCC(N)=O)C(=O)N[C@@H](C)C(=O)N[C@@H](C)C(=O)N[C@@H](CCCCN)C(=O)N[C@@H](CCC(=O)O)C(=O)N[C@@H](Cc1ccccc1)C(=O)N[C@H](C(=O)N[C@@H](C)C(=O)N[C@@H](Cc1c[nH]c2ccccc12)C(=O)N[C@@H](CC(C)C)C(=O)N[C@@H](CCSC)C(=O)N[C@@H](CC(N)=O)C(=O)N[C@H](C(N)=O)[C@@H](C)O)[C@@H](C)CC)C(=O)O)C(=O)O` [compound 648] (H-H[Aib]EGTFTSDK([γGlu-γGlu-Palmitoyl])SKYLDEQAAKEFIAWLMNT-NH2; N-terminus assumed) as the molecule, how does the EC50 (glucagon receptor; EC50 at Glucagon Receptor, Table 31) read?
**A.** 2920 pM

**Q.** With `CCCCCCCCCCCCCCCC(=O)N[C@@H](Cc1c[nH]c2ccccc12)C(=O)NCCCC[C@H](NC(=O)[C@H](CC(=O)O)NC(=O)[C@H](CO)NC(=O)[C@@H](NC(=O)[C@H](Cc1ccccc1)NC(=O)[C@@H](NC(=O)CNC(=O)[C@H](CCC(N)=O)NC(=O)C(C)(C)NC(=O)[C@@H](N)Cc1c[nH]cn1)[C@@H](C)O)[C@@H](C)O)C(=O)N[C@@H](CO)C(=O)N[C@@H](CCCCN)C(=O)N[C@@H](Cc1ccc(O)cc1)C(=O)N[C@@H](CC(C)C)C(=O)N[C@@H](CC(=O)O)C(=O)NC(C)(C)C(=O)N[C@@H](CCCNC(=N)N)C(=O)N[C@@H](CCCNC(=N)N)C(=O)N[C@@H](C)C(=O)NC(C)(C)C(=O)N[C@@H](CC(=O)O)C(=O)N[C@@H](Cc1ccccc1)C(=O)N[C@H](C(=O)N[C@@H](CS)C(=O)N[C@@H](Cc1c[nH]c2ccccc12)C(=O)N[C@@H](CC(C)C)C(=O)N[C@@H](CCSC)C(=O)N[C@@H](CC(N)=O)C(=O)N[C@H](C(N)=O)[C@@H](C)O)C(C)C` (H-H[Aib]QGTFTSDK([Trp-Palmitoyl])SKYLD[Aib]RRA[Aib]DFVCWLMNT-NH2; N-terminus assumed) as the molecule, how does the EC50 (glucagon receptor; Glucagon Receptor EC50, Table 20) read?
**A.** 2060 pM

**Q.** Which results are given for `CSCC[C@H](NC(=O)[C@H](CC(C)C)NC(=O)[C@H](Cc1c[nH]c2ccccc12)NC(=O)[C@H](CCC(N)=O)NC(=O)[C@@H](NC(=O)[C@H](Cc1ccccc1)NC(=O)[C@H](CC(=O)O)NC(=O)[C@H](CCCCN)NC(=O)[C@H](C)NC(=O)[C@H](CCCNC(=N)N)NC(=O)[C@H](CCCNC(=N)N)NC(=O)[C@H](CCC(=O)O)NC(=O)[C@H](CC(=O)O)NC(=O)[C@H](CC(C)C)NC(=O)[C@H](Cc1ccc(O)cc1)NC(=O)[C@H](CCCCN)NC(=O)[C@H](CO)NC(=O)[C@H](Cc1ccc(O)cc1)NC(=O)[C@H](CC(=O)O)NC(=O)[C@H](CO)NC(=O)[C@@H](NC(=O)[C@H](Cc1ccccc1)NC(=O)[C@@H](NC(=O)CNC(=O)[C@H](CCC(N)=O)NC(=O)[C@H](CO)NC(=O)[C@@H](N)Cc1c[nH]cn1)[C@@H](C)O)[C@@H](C)O)C(C)C)C(=O)N[C@@H](CC(N)=O)C(=O)N[C@H](C(N)=O)[C@@H](C)O` [E16, K20 Gluc-NH2, HSQGTFTSDYSKYLDERRAKDFVQW LMNTa]?
**A.** Percent Potency Relative to Native Ligand, GLP-1Rec (GLP-1 receptor; Table 5): 41.5%; Percent Potency Relative to Native Ligand, GLP-1Rec (GLP-1 receptor; Table 9): 41.5%; EC50 (glucagon receptor; EC50, Glucagon Receptor, Table 13): 180 pM; EC50 (glucagon receptor; EC50 at Glucagon Receptor, Table 17): 203 pM; Percent Potency Relative to Native Ligand, GRec (glucagon receptor; Table 5): 130.1%; Percent Potency Relative to Native Ligand, GRec (glucagon receptor; Table 9): 130.1%

**Q.** For `CCCCCCCCCCCCCCCC(=O)NCCCC[C@H](NC(=O)[C@H](CC(=O)O)NC(=O)[C@H](CO)NC(=O)[C@@H](NC(=O)[C@H](Cc1ccccc1)NC(=O)[C@@H](NC(=O)CNC(=O)[C@H](CCC(N)=O)NC(=O)C(C)(C)NC(=O)[C@@H](N)Cc1c[nH]cn1)[C@@H](C)O)[C@@H](C)O)C(=O)N[C@@H](CO)C(=O)N[C@@H](CCCCN)C(=O)N[C@@H](Cc1ccc(O)cc1)C(=O)N[C@@H](CC(C)C)C(=O)N[C@@H](CC(=O)O)C(=O)NC(C)(C)C(=O)N[C@@H](CCCNC(=N)N)C(=O)N[C@@H](CCCNC(=N)N)C(=O)N[C@@H](C)C(=O)N[C@@H](CCC(N)=O)C(=O)N[C@@H](CC(=O)O)C(=O)N[C@@H](Cc1ccccc1)C(=O)N[C@H](C(=O)N[C@@H](CCC(N)=O)C(=O)N[C@@H](Cc1c[nH]c2ccccc12)C(=O)N[C@@H](CC(C)C)C(=O)N[C@@H](CCSC)C(=O)N[C@@H](CC(N)=O)C(=O)N[C@H](C(=O)N[C@@H](CCCCN)C(N)=O)[C@@H](C)O)C(C)C`, which EC50 (glucagon receptor; EC50 at Glucagon Receptor (20% human plasma), Table 28, 20% human plasma) is on record?
**A.** 313 pM

**Q.** And the EC50 (glucagon receptor; EC50 at Glucagon Receptor, Table 28)?
**A.** 761 pM

**Q.** What does the source list for GLP-1?
**A.** Percent Helicity, 0% TFE ([6]; 10 mM phosphate buffer pH 5.9, 0% TFE): 14%; Percent Helicity, 10% TFE ([6]; 10% TFE): 29%; Percent Helicity, 20% TFE ([6]; 20% TFE): 55%

Source: US8969294B2 (Istituto di Recerche di Biologia Molecolare P. Angeletti …, priority 2008, dated 2015)
